The values below come from PMC9253268 (Frontiers in Immunology, 2022).

Data set [1] can be described thus: In vivo pharmacokinetic analysis of MG and CA after oral BHGZD (UHPLC-QTRAP-MS/MS). The following applies: rat plasma after oral BHGZD 21.4 g/kg each day, n = 3. How it is done: The pharmacokinetic parameters were calculated by Drug and Statistic software (Shanghai, China). Detailed information on the collection of blood samples and UHPLC-QTRAP-MS/MS conditions is provided in Supplementary Materials Section 13 . […]
Section 13 Pharmacokinetic analysis […]
administration of BHGZD, ultra-fast liquid chromatography coupled with triple quadrupole-linear ion trap composite mass spectrometry (UHPLC-QTRAP-MS/MS) system was […]
Bioanalytical Method Validation issued by Chinese Pharmacopoeia Commission in 2020.
The pharmacokinetic parameters were calculated by Drug and Statistic software […]
1) Collection of blood samples
Male Lewis rats (n=6, 6-8 weeks-old, 200±20g in weight) were purchased from Beijing Vital River Laboratory Animal Technology Co., Ltd. (SCCK 2016-0006, Beijing, China; n=3 per group, including normal control group and normal control+BHGZD treatment group).
Diet was prohibited for 12h before the experiment but water was freely available. Blood samples (~0.25mL) were collected from the retinal venous plexus into heparinized 1.5mL polythene tubes before administration and 0, 0.25, 0.5, 1, 2, 3, 4, 6, 8,12 and 24h after administration of BHGZD. The plasma samples were obtained after centrifuging at 12000rpm for 15min, and stored at -20℃ prior to analysis.
2) UHPLC-QTRAP-MS/MS conditions
Quantification analysis were performed on an ultra-high-performance liquid chromatography (Shimadzu Corp., Japan) tandem ion trap quadrupole QTRAP 6500 plus mass spectrometry (AB Sciex, USA). Chromatographic separation was conducted using a Poroshell 120 EC-C18 column (3.0×50mm, 2.7μm) at 40℃. The mobile phase was consisted of 0.1% formic acid–water (v/v, A) and methanol (B) and elution program were:
Mass spectrometry detector were conducted in negative mode and the detecting parameters were set as follows: curtain gas, 35 psi; collision gas, medium; ionspray voltage, 4500 V; temperature, 550℃; ion source gas 1 and 2, 55psi. Quantitative ion pairs were optimized for MG: m/z 421.2-301.1 (declustering potential: 63V, CE: 30eV) and for […]
Data acquisition and analysis

Data set [2] relates to RAW264.7 cells. In words: LPS/ATP-induced pyroptosis in RAW264.7 cells (flow cytometry, FAM-FLICA, immunofluorescence, Western blotting, ELISA). Format: cell-based, mouse. (In general: A flow cytometer gives signals particle by particle.)
Description: (§1) Mouse macrophage cell line (RAW264.7 cells, Bio-Swamp, Wuhan, China) and fibroblast-like synoviocytes in patients with RA (MH7A cells, Riken cell bank, Ibaraki, Japan) at passage numbers four to eight were used in the current experiment validations.
(§2) The concentration of DMSO was less than 1‰ of the solution for the in vitro experiment.
Fluorescence images were visualized and photographed with a confocal microscope (Zeiss LSM 880, Carl Zeiss, Jena, Germany).
The images were visualized and photographed with a confocal microscope (Zeiss LSM 880, Carl Zeiss, Jena, Germany) or an inverted fluorescence microscope (MF53, MSHOT, Guangzhou, China).
(§3) To evaluate the therapeutic effects of two BACs from BHGZD on the regulation of the “immune-inflammation” system, the levels of cytokines, proteins, and LDH release in RAW264.7 and MH7A cellular supernatant, as well as the sera of AIA-M rats were determined using enzyme-linked immunosorbent assay (ELISA) to assess the integrity of membranes in accordance with the manufacturer’s guidelines.
Raw264.7 cells were maintained in DMEM (Hyclone, Logan, UT, USA), supplemented
100μg/mL streptomycin and 2mM L-glutamine (TBD, Tianjin, China) in a humidified 5%
CO2 incubator at the temperature of 37℃. The Raw264.7 cells at passage numbers four
to eight were used in the current experiment validations.
MH7A cells were cultured in sterile synoviocyte growth medium (Cell Applicatio ns, Inc.,
L-glutamine (TBD, Tianjin, China) in a humidified 5% CO2 incubator at the temperature of
37℃. MH7A at passage numbers four to eight were used in the current experiment
(§4) To induce a conventional NLRP3 inflammasome activation, Raw264.7cells was induced
(§5) with 0.2μg/mL lipopolysaccharide [LPS, Escherichia coli (O111:B4), Sigma-Aldrich, St
(§6) Louis, MO, USA] for 4h, followed with a 3mM ATP adenosine triphosphate (ATP disodium
(§7) salt hydrate, Sigma-Aldrich, St Louis, MO, USA) for 1h of incubation at 37℃ with 5% CO2
(§8) For MH7A cells LPS/ATP-induced pyrotosis, MH7A cells were induced with 1μg/mL LPS
(§9) for 6h, followed with a 3mM ATP for 1h of incubation at 37℃ with 5% CO2 (11).
Data set [3] relates to RAW264.7 cells. Put plainly: Cell viability, CCK-8 assay. As to conditions: 0.21–6.74 ng/ml MG or 0.02–0.52 ng/ml CA treatment alone. The format is cell-based, mouse. How it is done: Cell viability was analyzed with the cell counting kit-8 (CCK-8) assay kit (Beyotime Biotechnology, Shanghai, China) as described in Supplementary Materials Section 16 .
Section 16 Cell proliferation assay
Cell viability was analyzed with Cell Counting Kit-8 (CCK-8) assay kit (Beyotime Biotechnology, China). Raw264.7 cells were seeded into 96-well plate, and after […]
solution was added to each well. The absorbance was measured after 4h of incubation at […]
Section 17 Flow cytometry
To identify and quantify of pyroptosis population of Raw264.7 cells, FITC Apoptosis Detection kit I staining with both the Annexin V-fluorescein isothiocyanate and propidium iodide (PI, BD Biosciences, San Jose, CA, USA) was used in accordance with manufacturer's guidelines. Briefly, Raw264.7 cells was washed twice with cold PBS and then resuspended in 1×binding buffer at a concentration of 1x10^6 cells/mL. Then, 100µL of the solution (1x10^5 cells) was transferred to a 5 mL culture tube. Subsequently, 5µL of FITC Annexin V and 5µL PI were added into cultured tube, and vortexed and incubated for 15 min at room temperature in the dark. Finally, 400µL 1×binding buffer was added into each tube, and analyzed by flow cytometry (ACEA Bioscience, San Diego, CA, USA) and NovoExpress 1.4.1 software (ACEA Bioscience, San Diego, CA, USA) within 1h.
(In general: Formazan colour is commonly taken as a measure of viable cells.)

In data set [4] the target is T1, recombinant TLR4 protein (Homo sapiens, UniProt O00206).
T1 construct: purchased Abcam ab233665
In words: Microscale thermophoresis (MST) binding assay. As to conditions: 1:1 binding mode, read-out: mean KD, CA–TLR4. On the procedure:
The binding affinity between recombinant TLR4 protein and CA was measured by a NanoTemper Monolith NT.115 instrument (NanoTemper Technologies, Germany). The K D value was fitted by NanoTemper Monolith affinity software (NanoTemper Technologies, Germany) using 1:1 binding mode. Detailed information on the MST assay is provided in Supplementary Materials Section 12 . […]
compound was greater than 9.0×106cm/s and 40% which indicated drug-like […]
Section 11 Surface plasmon resonance (SPR) assay
SPR binding assays were analyzed with Biacore 8K (Biacore, Cytiva). Materials and reagents used in SPR assays were purchased from Cytiva. […]
UK) and CA contained in BHGZD was measured by NanoTemper Monolith NT.115 instrument (NanoTemper Technologies, Germany). […]
After the protein labeling experiment was completed, TLR4 was diluted with binding buffer (20mM HEPES, pH 7.4, 100mM NaCl and 0.005% Tween 20) to ensure that the fluorescence intensity of TLR4 during the MST assay was about 500 RU. […]
After incubation, the samples were loaded into the premium treated capillaries and measured in NanoTemper Monolith NT.115 instrument (NanoTemper Technologies, Germany). […]
The pharmacokinetic parameters were calculated by Drug and Statistic software
Background: MST reads how a fluorescent partner responds to local heating, with and without ligand.

In data set [5] the test system is MH7A cells. Put plainly: LPS/ATP-induced pyroptosis in MH7A cells (TUNEL, immunofluorescence, Western blotting, ELISA). Format: cell-based, human.
Description: as §1
The conventional NLRP3 inflammasome activation cellular model was induced by lipopolysaccharide [LPS, Escherichia coli (O111:B4), Sigma-Aldrich, St Louis, MO, USA] and adenosine triphosphate (ATP disodium salt hydrate, Sigma-Aldrich, St Louis, MO, USA) as in our previous study ([22]) ( Supplementary Materials Section 15 ).
as §2
The occurrence of pyroptosis in both MH7A cells and synovium tissues in AIA-M rats was determined by in situ TUNEL staining (TUNEL Andy Fluor™ 594 Apoptosis Detection Kit, ABP Biosciences, Wuhan, China) in accordance with the manufacturer’s protocol. Fluorescence images were visualized and photographed with inverted fluorescence microscopes (MF53, MSHOT, Guangzhou, China; Olympus, BX51, Tokyo, Japan).
Double fluorescence staining was performed as described previously ([22]) ( Supplementary Materials Section 20 ). The images were visualized and photographed with a confocal microscope (Zeiss LSM 880, Carl Zeiss, Jena, Germany) or an inverted fluorescence microscope (MF53, MSHOT, Guangzhou, China).
To evaluate the regulation of BHGZD on the candidate targets in arthritic tissue samples, as well as RAW264.7 and MH7A cells, Western blotting analysis was carried out following the protocol as in our previous studies ([21], [24], [29]). TLR4, phospho-PI3K (p-PI3K), PI3K, p-AKT, p-NFκB-p65, NFκB-p65, NLRP3, ASC, caspase-1, the N-terminal domain of GSDMD (GSDMD-NT), and IL-1β antibodies were used as shown in Supplementary Table S3 . GAPDH (GAPDH Mouse monoclonal antibody, Abcam, Cambridge, UK) and β-actin (Anti-beta-Actin/β-Actin Antibody, Boster Biological Technology, California, USA) were used as loading controls for arthritic tissue samples and cultured cells, respectively.
as §3, §4, §5, §6, §7, §8, §9
Setting [6] is: LPS/ATP-induced RAW264.7 cells, all p < 0.05.
Setting [7] is: LPS/ATP-induced, BHGZD 28.54 μg/ml, MG 1.69 ng/ml, CA 0.13 ng/ml, 24 h.
The mark [8] stands for this setting: LPS/ATP-induced MH7A cells, all p < 0.05.

Each structure is given as a SMILES string.

T1 sequence (O00206 24-839): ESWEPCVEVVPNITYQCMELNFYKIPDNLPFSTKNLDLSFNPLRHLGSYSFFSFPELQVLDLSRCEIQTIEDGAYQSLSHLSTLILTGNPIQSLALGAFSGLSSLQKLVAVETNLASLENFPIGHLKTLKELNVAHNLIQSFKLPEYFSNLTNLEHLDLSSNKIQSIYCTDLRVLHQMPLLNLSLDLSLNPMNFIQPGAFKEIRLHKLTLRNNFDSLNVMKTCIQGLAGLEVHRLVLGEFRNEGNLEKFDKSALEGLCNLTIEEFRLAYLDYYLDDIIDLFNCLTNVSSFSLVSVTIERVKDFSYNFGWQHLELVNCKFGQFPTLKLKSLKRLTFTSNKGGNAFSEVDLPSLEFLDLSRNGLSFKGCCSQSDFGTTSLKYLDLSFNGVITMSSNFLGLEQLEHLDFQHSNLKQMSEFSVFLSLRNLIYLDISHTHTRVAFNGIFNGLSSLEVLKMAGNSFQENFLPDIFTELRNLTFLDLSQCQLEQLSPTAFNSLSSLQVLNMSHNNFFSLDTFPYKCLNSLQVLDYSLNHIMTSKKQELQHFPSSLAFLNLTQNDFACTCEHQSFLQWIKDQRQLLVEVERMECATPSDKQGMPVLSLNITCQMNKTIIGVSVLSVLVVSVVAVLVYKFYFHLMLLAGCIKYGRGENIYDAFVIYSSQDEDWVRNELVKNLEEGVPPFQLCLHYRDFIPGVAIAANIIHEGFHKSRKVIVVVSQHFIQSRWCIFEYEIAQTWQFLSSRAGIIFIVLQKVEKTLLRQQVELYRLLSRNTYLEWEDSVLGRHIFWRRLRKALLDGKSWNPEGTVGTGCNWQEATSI

For the compound `O=C(O)/C=C/c1ccccc1` [CA, cinnamic acid], the t1/2z in data set [1] (apparent elimination half-life) was 1.65 ± 1.34 h. In addition, the peak concentration (Cmax) in data set [1] (male, Lewis, rat, plasma, po, 21.4 g/kg, non-compartment model, read-out: Cmax) was determined as 120 ± 25.9 ng/mL. This compound returned an AUC(0-t) in data set [1] (male, Lewis, 0-24 h) of 102 ± 67.8 ng·h/mL. Further, the AUC(0-inf) in data set [1] (male, Lewis) is 144 ± 30.4 ng·h/mL. Moreover, the MRT last in data set [1] (male, Lewis, read-out: MRT(0-t)) stood at 1.93 ± 0.35 h. The MRT inf in data set [1] (male, Lewis, read-out: MRT(0-∞)) came out at 2.26 ± 0.8 h. Also, the GSDMD-NT result was “decreased” in data set [2] (LPS/ATP-induced RAW264.7 cells, Western blotting) and “decreased” in data set [5] (LPS/ATP-induced MH7A cells, Western blotting). Moreover, the “expression levels of NLRP3, ASC, and caspase-1” value in data set [2] (setting [6]) and in data set [5] (setting [8]) was “reduced” throughout. The “levels of IL-1β, IL-18, and LDH release in the supernatant” value in data set [2] (setting [6]) and in data set [5] (setting [8]) was “reduced” throughout. In addition, the “PI positive cell rate” value in data set [2] (LPS/ATP-induced, 1.69 ng/ml MG, 0.13 ng/ml CA, 24 h, inferior to BHGZD, all p < 0.05) is “prominently reduced”. Also, in data set [2] (setting [7]), the “number of FLICA-positive RAW264.7 cells” value was “reduced”. Further, the “inhibition on cell pyroptosis induced by LPS/ATP, alone versus combination” value in data set [2] (RAW264.7 and MH7A cells, all p < 0.05) is given as “weaker than that in the two-BAC combination treatment group”. Further, the “cell viability (CCK8)” value in data set [3] is reported as “no cell toxicity”. The Kd in data set [4] is 211 µM. The “number of TUNEL-positive MH7A cells” value in data set [5] (setting [7]) is “reduced”.

Broadly, the Cmax is the peak of the concentration-time curve. For orientation: AUC(0-t) means the area under the concentration-time curve up to a stated or last time point. Read a low AUC(0-t) as less exposure. Broadly, the AUC(0-inf) is the area under the concentration-time curve extrapolated to infinity. High values mean high exposure, low ones low exposure. As usually defined, the Kd is the free concentration of one partner at which half of the binding sites on the other are occupied at equilibrium, for simple one-to-one binding.
